# Values joined by “and” are separate entries in the source; they are usually repeats but may differ in a detail not shown here. Identical values can stand only once. Like-named read-outs stand apart in the source and are kept apart here.
# Key:
# L1210 cells [1] = assay: Mitotic index of L1210 cells; format: cell-based, murine; settings: 24 h; for decrease of the % of mitotic cells: DAU 0.256-1.6 μM, highest concentrations of TT2 tested
# Description: FIG. 18. Effects of the novel TT analog TT2 and DAU on the mitotic index of L1210 cells in vitro. […] Cells (10^6/0.5 ml of RPMI 1640 medium) were incubated in triplicate for 24 h at 37° C. in the presence or absence (control) of 0.256, 0.64, 1.6 and 4 μM TT2, 0.256, 0.64 and 1.6 μM DAU, 0.2 μM VCR or 1 μM H10. After fixation with MeOH:acetic acid (3:1) and staining with 0.1% crystal violet, about 500 cells/slide were scored for mitotic figures and the mitotic index was expressed as the % of mitotic cells in drug-treated cultures divided by the % of mitotic cells in non-treated controls. The mean % of mitotic cells in control at 24 h was 1.86±0.43%.
# L1210 cells (about 1×10^6/0.5 ml of FCS-containing RPMI 1640 medium) were incubated in triplicate for 24 h at 37° C. in the presence or absence of TTs or known antimitotic drugs, and collected by centrifugation at 200×g for 10 min to determine their mitotic index. For hypotonic treatment, cells were resuspended in 1 ml of 75 mM KCl for 20 min at 4° C. After fixation in 1 ml of MeOH:acetic acid (3:1), the final cell pellets were collected by centrifugation, resuspended in 75 μl of MeOH:acetic acid (3:1), dispensed onto glass slides, air dried, and stained by spreading 40 μl of 0.1% crystal violet under a coverslip. The % of cells in mitosis was determined microscopically by counting 500 cells/slides. The mitotic index was calculated as the % of mitotic cells in drug-treated cultures divided by the % of mitotic cells in non-treated controls.
# HL-60-S cells = assay: HL-60-S cell viability assay (MTS:PMS); format: cell-based, human
# From the text: The MDR HL-60-RV and HL-60-R8 cells were developed in Melvin S. Center's laboratory (Kansas State University) and similarly maintained in RPMI 1640 medium in the absence of drugs (Marsh W, et al, Cancer Res 46: 4053-4057, 1986; McGrath T et al, and Center M S: Biochem Biophys Res Commun 145: 1171-1176, 1987; Marsh W and Center M S: Cancer Res 47: 5080-5086, 1987; McGrath T, et al, Biochem Pharmacol 38: 3611-3619, 1989; Marquardt D, et al, Cancer Res 50: 1426-1430, 1990; Marquardt D and Center M S: J Natl Cancer Inst 83: 1089-1109, 1991; Krishnamachary N and Center M S; Cancer Res 53: 3658-3661, 1993). Every 4 weeks, these HL-60-RV and HL-60-R8 sublines were exposed to 41 nM DAU for 48 h to stabilize their MDR phenotype. This concentration of DAU, which is not cytotoxic to MDR HL-60 sublines, was removed from the culture medium at least 48 h before experimentation. […] RFs were determined by dividing the IC50 of the MDR cells by that of the sensitive WT parent cell line.
# L1210 cells [2] = assay: DNA cleavage (intact chromatin precipitation) in L1210 cells; format: cell-based, murine
# Description: FIG. 19. Comparison of the concentration-dependent effects of novel TT analogs and known DNA-damaging anticancer drugs on DNA cleavage in L1210 cells in vitro. […] After lysing the cells in HLB containing 0.2% Triton X-100, the detergent-soluble DNA fragments present in the supernatants and the intact chromatin DNA remaining in the pellets were separated by centrifugation and their radioactivity estimated by LSC. Results are expressed as [cpm in supernatant/cpm in supernatant+pellet]×100 at 24 h. For untreated controls (5.3±0.6% DNA fragmentation; striped area), the supernatant is 741±79 cpm and the pellet is 13,293±1,446 cpm.
# FIG. 20. Comparison of the abilities of novel TT analogs to induce DNA cleavage in L1210 cells in vitro. Cells containing prelabeled DNA were incubated at 37° C. for 24 h in the presence or absence (control) of 7 μM concentrations of the indicated compounds. The protocol of the experiment and the determination of the results were identical to those of FIG. 12.
# FIG. 22. Irreversibility of the effects of novel TT analogs and known DNA-damaging anticancer drugs on DNA cleavage in L1210 cells in vitro. Cells containing prelabeled DNA were incubated at 37° C. for various periods of time in the presence or absence (control) of 10 μM TT1 or TT2 and 1.6 μM DAU or CPT. The protocol of the experiment and the determination of the results at 24 h were identical to those of FIG. 19, except that the drugs were either maintained in the medium for the whole 24-h period of incubation (open) or removed after the first 3 (striped) and 8 h (closed). After spinning and washing the appropriate samples to remove the drugs, cells were resuspended in 0.5 ml of fresh medium to complete the 24-h period of incubation in the absence of drugs. Vehicle-treated controls were similarly spun and washed at 3 and 8 h. Bars: means±SD (n=3).
# Drug-induced DNA cleavage was determined by intact chromatin precipitation, using L1210, HL-60-S, HL-60-RV and HL-60-R8 cells which were prelabeled with 1 μCi of ^3H-thymidine for 2 h at 37° C., washed with 3×1 ml of ice-cold PBS, collected by centrifugation, and resuspended in fresh FCS-containing RPMI 1640 medium at a density of about 1×10^6 cells/0.5 ml for L1210 and 0.5×10^6 cells/0.5 ml for HL cells. Except when otherwise specified, such cells containing prelabeled DNA were then exposed for 24 h to TTs and drugs known to induce DNA fragmentation. After centrifugation at 200×g for 10 min to discard the drugs and wash the cells, the intact cell pellets were lysed for 30 min in 0.5 ml of HLB, centrifuged at 12,000×g for 30 min to collect the supernatants, and resuspended in 0.5 ml of HLB. After another similar centrifugation, the radioactivities in the pooled supernatants (detergent-soluble low molecular weight DNA fragments) and the pellet (intact chromatin DNA) were determined by LSC: % DNA fragmentation=[cpm in supernatant/cpm in supernatant+pellet]×100. Before being counted in 6 ml of Bio-Safe NA, the intact pelleted chromatin was incubated for 2 h at 60° C. in the presence of 0.6 ml of NCS tissue solubilizer (Amersham).
smiles,measurement,setting,value
"COc1cccc2c1C(=O)c1c(O)c3c(c(O)c1C2=O)C[C@@](O)(C(C)=O)C[C@@H]3O[C@H]1C[C@H](N)[C@H](O)[C@H](C)O1 [DAU, daunomycin, reference compound]",decrease of the % of mitotic cells,L1210 cells [1],74-91%
same,IC50,"HL-60-S cells; Homo sapiens, 48 h, read-out: IC50, decrease of HL-60-S cell viability",80 nM
same,IC50,"HL-60-S cells; Homo sapiens, 96 h, read-out: IC50, decrease of HL-60-S cell viability",15 nM
same,DNA cleavage (% DNA fragmentation),"L1210 cells [2]; 1.6 μM, 24 h",45%
same,"DNA fragmentation at 24 h, drug maintained or removed","L1210 cells [2]; 1.6 μM, maintained or removed after 3 or 8 h",33-41%
"COC1=CC(=O)C2=C(C1=O)C1C3=C(C(=O)C=CC3=O)C2c2ccccc21 (stereo not drawn) [TT2, 2-Methoxy-9,10-dihydro-9,10-[1′,2′]benzenoanthracene-1,4,5,8-tetraone]",effect on the mitotic index,L1210 cells [1],does not increase
same,decrease of the % of mitotic cells,L1210 cells [1],38-48%
same,times TT2 inhibits viability less effectively than DAU,HL-60-S cells; HL-60-S,15 times
same,IC50,"HL-60-S cells; HL-60-S, HL-60-RV and HL-60-R8, day 4, read-out: IC50 values, decrease of cell viability, range over the three lines",230 to 350 nM
same,IC50,"HL-60-S cells; day 2, read-out: IC50, decrease of HL-60-S cell viability",1300 nM
same,IC50,"HL-60-S cells; day 4, read-out: IC50, decrease of HL-60-S cell viability",230 nM
same,DNA fragmentation at 24 h after short exposure,"L1210 cells [2]; 10 μM, drug removed after 3 and 8 h",58-67%
same,DNA cleavage (% DNA fragmentation),"L1210 cells [2]; 10 μM, whole 24 h",61% and 63%
same,concentration at which induction of DNA cleavage peaks,"L1210 cells [2]; DNA cleavage at 24 h, internucleosomal fragmentation at 48-72 h",4 to 10 µM
same,times higher TT2 than DAU concentrations needed for the same peak of DNA cleavage,"L1210 cells [2]; L1210, 24 h",about 6 times

# From patent publication US6828450B2, “Triptycene analogs” (Kansas State University Research Foundation, priority 2000, dated 2004)
